# System: MCF7
# Test: Antiproliferative activity against human MCF7 cells after 48 hrs by MTT assay
# Format: functional, cell-based
# Conditions: MCF7, 48 h
row,SMILES,IC50 [µM]
1,N#CC1=C(N)Oc2c(N)cc3nc4ccccc4nc3c2C12C(=O)N(Cc1cnnn1-c1cc(Cl)ccc1Cl)c1ccccc12 (stereo unspecified),33.2
2,N#CC1=C(N)Oc2c(N)cc3nc4ccccc4nc3c2C12C(=O)N(Cc1cnnn1-c1ccc(Cl)cc1[N+](=O)[O-])c1ccccc12 (stereo unspecified),> 50
3,Cc1ccc(-n2nncc2CN2C(=O)C3(C(C#N)=C(N)Oc4c3c3nc5ccccc5nc3c3ccccc43)c3ccccc32)c(C)c1 (stereo unspecified),> 50
4,CC(=O)Nc1ccc(-n2nncc2CN2C(=O)C3(C(C#N)=C(N)Oc4c(N)cc5nc6ccccc6nc5c43)c3ccccc32)cc1 (stereo unspecified),> 50
5,N#CC1=C(N)Oc2c(c3nc4ccccc4nc3c3ccccc23)C12C(=O)N(Cc1cnnn1-c1cccc(Cl)c1)c1ccccc12 (stereo unspecified),43.6
6,CCOc1ccc(-n2nncc2CN2C(=O)C3(C(C#N)=C(N)Oc4c3c3nc5ccccc5nc3c3ccccc43)c3ccccc32)cc1 (stereo unspecified),> 50
7,Cc1cc(C)cc(-n2nncc2CN2C(=O)C3(C(C#N)=C(N)Oc4c(N)cc5nc6ccccc6nc5c43)c3ccccc32)c1 (stereo unspecified),> 50
8,Cc1ccccc1-n1nncc1CN1C(=O)C2(C(C#N)=C(N)Oc3c(N)cc4nc5ccccc5nc4c32)c2ccccc21 (stereo unspecified),> 50
9,COc1ccccc1-n1nncc1CN1C(=O)C2(C(C#N)=C(N)Oc3c(N)cc4nc5ccccc5nc4c32)c2ccccc21 (stereo unspecified),28.9
10,COc1ccc(-n2nncc2CN2C(=O)C3(C(C#N)=C(N)Oc4c3c3nc5ccccc5nc3c3ccccc43)c3ccccc32)cc1 (stereo unspecified),> 50
11,COc1ccc(OC)c(-n2nncc2CN2C(=O)C3(C(C#N)=C(N)Oc4c(N)cc5nc6ccccc6nc5c43)c3ccccc32)c1 (stereo unspecified),28.1

# System: L02
# Test: Antiproliferative activity against human L02 cells after 48 hrs by MTT assay
# Format: cell-based
# Conditions: L02, 48 h
row,SMILES,IC50 [µM]
1,N#CC1=C(N)Oc2c(N)cc3nc4ccccc4nc3c2C12C(=O)N(Cc1cnnn1-c1cc(Cl)ccc1Cl)c1ccccc12 (stereo unspecified),> 50
2,N#CC1=C(N)Oc2c(N)cc3nc4ccccc4nc3c2C12C(=O)N(Cc1cnnn1-c1ccc(Cl)cc1[N+](=O)[O-])c1ccccc12 (stereo unspecified),> 50
3,Cc1ccc(-n2nncc2CN2C(=O)C3(C(C#N)=C(N)Oc4c3c3nc5ccccc5nc3c3ccccc43)c3ccccc32)c(C)c1 (stereo unspecified),> 50
4,CC(=O)Nc1ccc(-n2nncc2CN2C(=O)C3(C(C#N)=C(N)Oc4c(N)cc5nc6ccccc6nc5c43)c3ccccc32)cc1 (stereo unspecified),> 50
5,N#CC1=C(N)Oc2c(c3nc4ccccc4nc3c3ccccc23)C12C(=O)N(Cc1cnnn1-c1cccc(Cl)c1)c1ccccc12 (stereo unspecified),35.2
6,CCOc1ccc(-n2nncc2CN2C(=O)C3(C(C#N)=C(N)Oc4c3c3nc5ccccc5nc3c3ccccc43)c3ccccc32)cc1 (stereo unspecified),> 50
7,Cc1cc(C)cc(-n2nncc2CN2C(=O)C3(C(C#N)=C(N)Oc4c(N)cc5nc6ccccc6nc5c43)c3ccccc32)c1 (stereo unspecified),> 50
8,Cc1ccccc1-n1nncc1CN1C(=O)C2(C(C#N)=C(N)Oc3c(N)cc4nc5ccccc5nc4c32)c2ccccc21 (stereo unspecified),> 50
9,COc1ccccc1-n1nncc1CN1C(=O)C2(C(C#N)=C(N)Oc3c(N)cc4nc5ccccc5nc4c32)c2ccccc21 (stereo unspecified),> 50
10,COc1ccc(-n2nncc2CN2C(=O)C3(C(C#N)=C(N)Oc4c3c3nc5ccccc5nc3c3ccccc43)c3ccccc32)cc1 (stereo unspecified),> 50
11,COc1ccc(OC)c(-n2nncc2CN2C(=O)C3(C(C#N)=C(N)Oc4c(N)cc5nc6ccccc6nc5c43)c3ccccc32)c1 (stereo unspecified),> 50

# System: HUVEC
# Test: Antiproliferative activity against human HUVEC cells after 48 hrs by MTT assay
# Format: cell-based
# Conditions: not given
row,SMILES,IC50 [µM]
1,N#CC1=C(N)Oc2c(N)cc3nc4ccccc4nc3c2C12C(=O)N(Cc1cnnn1-c1cc(Cl)ccc1Cl)c1ccccc12 (stereo unspecified),> 50
2,N#CC1=C(N)Oc2c(N)cc3nc4ccccc4nc3c2C12C(=O)N(Cc1cnnn1-c1ccc(Cl)cc1[N+](=O)[O-])c1ccccc12 (stereo unspecified),> 50
3,Cc1ccc(-n2nncc2CN2C(=O)C3(C(C#N)=C(N)Oc4c3c3nc5ccccc5nc3c3ccccc43)c3ccccc32)c(C)c1 (stereo unspecified),> 50
4,CC(=O)Nc1ccc(-n2nncc2CN2C(=O)C3(C(C#N)=C(N)Oc4c(N)cc5nc6ccccc6nc5c43)c3ccccc32)cc1 (stereo unspecified),> 50
5,N#CC1=C(N)Oc2c(c3nc4ccccc4nc3c3ccccc23)C12C(=O)N(Cc1cnnn1-c1cccc(Cl)c1)c1ccccc12 (stereo unspecified),> 50
6,CCOc1ccc(-n2nncc2CN2C(=O)C3(C(C#N)=C(N)Oc4c3c3nc5ccccc5nc3c3ccccc43)c3ccccc32)cc1 (stereo unspecified),> 50
7,Cc1cc(C)cc(-n2nncc2CN2C(=O)C3(C(C#N)=C(N)Oc4c(N)cc5nc6ccccc6nc5c43)c3ccccc32)c1 (stereo unspecified),> 50
8,Cc1ccccc1-n1nncc1CN1C(=O)C2(C(C#N)=C(N)Oc3c(N)cc4nc5ccccc5nc4c32)c2ccccc21 (stereo unspecified),> 50
9,COc1ccccc1-n1nncc1CN1C(=O)C2(C(C#N)=C(N)Oc3c(N)cc4nc5ccccc5nc4c32)c2ccccc21 (stereo unspecified),> 50
10,COc1ccc(-n2nncc2CN2C(=O)C3(C(C#N)=C(N)Oc4c3c3nc5ccccc5nc3c3ccccc43)c3ccccc32)cc1 (stereo unspecified),> 50
11,COc1ccc(OC)c(-n2nncc2CN2C(=O)C3(C(C#N)=C(N)Oc4c(N)cc5nc6ccccc6nc5c43)c3ccccc32)c1 (stereo unspecified),> 50

# System: HCT-116
# Test: Antiproliferative activity against human HCT116 cells after 48 hrs by MTT assay
# Format: functional, cell-based
# Conditions: HCT-116, 48 h
row,SMILES,IC50 [µM]
1,N#CC1=C(N)Oc2c(N)cc3nc4ccccc4nc3c2C12C(=O)N(Cc1cnnn1-c1cc(Cl)ccc1Cl)c1ccccc12 (stereo unspecified),> 50
2,N#CC1=C(N)Oc2c(N)cc3nc4ccccc4nc3c2C12C(=O)N(Cc1cnnn1-c1ccc(Cl)cc1[N+](=O)[O-])c1ccccc12 (stereo unspecified),28.7
3,Cc1ccc(-n2nncc2CN2C(=O)C3(C(C#N)=C(N)Oc4c3c3nc5ccccc5nc3c3ccccc43)c3ccccc32)c(C)c1 (stereo unspecified),> 50
4,CC(=O)Nc1ccc(-n2nncc2CN2C(=O)C3(C(C#N)=C(N)Oc4c(N)cc5nc6ccccc6nc5c43)c3ccccc32)cc1 (stereo unspecified),> 50
5,N#CC1=C(N)Oc2c(c3nc4ccccc4nc3c3ccccc23)C12C(=O)N(Cc1cnnn1-c1cccc(Cl)c1)c1ccccc12 (stereo unspecified),> 50
6,CCOc1ccc(-n2nncc2CN2C(=O)C3(C(C#N)=C(N)Oc4c3c3nc5ccccc5nc3c3ccccc43)c3ccccc32)cc1 (stereo unspecified),> 50
7,Cc1cc(C)cc(-n2nncc2CN2C(=O)C3(C(C#N)=C(N)Oc4c(N)cc5nc6ccccc6nc5c43)c3ccccc32)c1 (stereo unspecified),> 50
8,Cc1ccccc1-n1nncc1CN1C(=O)C2(C(C#N)=C(N)Oc3c(N)cc4nc5ccccc5nc4c32)c2ccccc21 (stereo unspecified),> 50
9,COc1ccccc1-n1nncc1CN1C(=O)C2(C(C#N)=C(N)Oc3c(N)cc4nc5ccccc5nc4c32)c2ccccc21 (stereo unspecified),> 50
10,COc1ccc(-n2nncc2CN2C(=O)C3(C(C#N)=C(N)Oc4c3c3nc5ccccc5nc3c3ccccc43)c3ccccc32)cc1 (stereo unspecified),> 50
11,COc1ccc(OC)c(-n2nncc2CN2C(=O)C3(C(C#N)=C(N)Oc4c(N)cc5nc6ccccc6nc5c43)c3ccccc32)c1 (stereo unspecified),> 50

# System: A549
# Test: Antiproliferative activity against human A549 cells after 48 hrs by MTT assay
# Format: functional, cell-based
# Conditions: A549, 48 h
row,SMILES,IC50 [µM]
1,N#CC1=C(N)Oc2c(N)cc3nc4ccccc4nc3c2C12C(=O)N(Cc1cnnn1-c1cc(Cl)ccc1Cl)c1ccccc12 (stereo unspecified),10.9
2,N#CC1=C(N)Oc2c(N)cc3nc4ccccc4nc3c2C12C(=O)N(Cc1cnnn1-c1ccc(Cl)cc1[N+](=O)[O-])c1ccccc12 (stereo unspecified),> 50
3,Cc1ccc(-n2nncc2CN2C(=O)C3(C(C#N)=C(N)Oc4c3c3nc5ccccc5nc3c3ccccc43)c3ccccc32)c(C)c1 (stereo unspecified),> 50
4,CC(=O)Nc1ccc(-n2nncc2CN2C(=O)C3(C(C#N)=C(N)Oc4c(N)cc5nc6ccccc6nc5c43)c3ccccc32)cc1 (stereo unspecified),> 50
5,N#CC1=C(N)Oc2c(c3nc4ccccc4nc3c3ccccc23)C12C(=O)N(Cc1cnnn1-c1cccc(Cl)c1)c1ccccc12 (stereo unspecified),32.6
6,CCOc1ccc(-n2nncc2CN2C(=O)C3(C(C#N)=C(N)Oc4c3c3nc5ccccc5nc3c3ccccc43)c3ccccc32)cc1 (stereo unspecified),25.2
7,Cc1cc(C)cc(-n2nncc2CN2C(=O)C3(C(C#N)=C(N)Oc4c(N)cc5nc6ccccc6nc5c43)c3ccccc32)c1 (stereo unspecified),31.2
8,Cc1ccccc1-n1nncc1CN1C(=O)C2(C(C#N)=C(N)Oc3c(N)cc4nc5ccccc5nc4c32)c2ccccc21 (stereo unspecified),31.7
9,COc1ccccc1-n1nncc1CN1C(=O)C2(C(C#N)=C(N)Oc3c(N)cc4nc5ccccc5nc4c32)c2ccccc21 (stereo unspecified),37.5
10,COc1ccc(-n2nncc2CN2C(=O)C3(C(C#N)=C(N)Oc4c3c3nc5ccccc5nc3c3ccccc43)c3ccccc32)cc1 (stereo unspecified),> 50
11,COc1ccc(OC)c(-n2nncc2CN2C(=O)C3(C(C#N)=C(N)Oc4c(N)cc5nc6ccccc6nc5c43)c3ccccc32)c1 (stereo unspecified),28.1

# System: HepG2
# Test: Antiproliferative activity against human HepG2 cells after 48 hrs by MTT assay
# Format: functional, cell-based
# Conditions: HepG2, 48 h
row,SMILES,IC50 [µM]
1,N#CC1=C(N)Oc2c(N)cc3nc4ccccc4nc3c2C12C(=O)N(Cc1cnnn1-c1cc(Cl)ccc1Cl)c1ccccc12 (stereo unspecified),33.1
2,N#CC1=C(N)Oc2c(N)cc3nc4ccccc4nc3c2C12C(=O)N(Cc1cnnn1-c1ccc(Cl)cc1[N+](=O)[O-])c1ccccc12 (stereo unspecified),> 50
3,Cc1ccc(-n2nncc2CN2C(=O)C3(C(C#N)=C(N)Oc4c3c3nc5ccccc5nc3c3ccccc43)c3ccccc32)c(C)c1 (stereo unspecified),> 50
4,CC(=O)Nc1ccc(-n2nncc2CN2C(=O)C3(C(C#N)=C(N)Oc4c(N)cc5nc6ccccc6nc5c43)c3ccccc32)cc1 (stereo unspecified),> 50
5,N#CC1=C(N)Oc2c(c3nc4ccccc4nc3c3ccccc23)C12C(=O)N(Cc1cnnn1-c1cccc(Cl)c1)c1ccccc12 (stereo unspecified),> 50
6,CCOc1ccc(-n2nncc2CN2C(=O)C3(C(C#N)=C(N)Oc4c3c3nc5ccccc5nc3c3ccccc43)c3ccccc32)cc1 (stereo unspecified),> 50
7,Cc1cc(C)cc(-n2nncc2CN2C(=O)C3(C(C#N)=C(N)Oc4c(N)cc5nc6ccccc6nc5c43)c3ccccc32)c1 (stereo unspecified),> 50
8,Cc1ccccc1-n1nncc1CN1C(=O)C2(C(C#N)=C(N)Oc3c(N)cc4nc5ccccc5nc4c32)c2ccccc21 (stereo unspecified),> 50
9,COc1ccccc1-n1nncc1CN1C(=O)C2(C(C#N)=C(N)Oc3c(N)cc4nc5ccccc5nc4c32)c2ccccc21 (stereo unspecified),> 50
10,COc1ccc(-n2nncc2CN2C(=O)C3(C(C#N)=C(N)Oc4c3c3nc5ccccc5nc3c3ccccc43)c3ccccc32)cc1 (stereo unspecified),> 50
11,COc1ccc(OC)c(-n2nncc2CN2C(=O)C3(C(C#N)=C(N)Oc4c(N)cc5nc6ccccc6nc5c43)c3ccccc32)c1 (stereo unspecified),45.1

# Source: ChEMBL document CHEMBL4033663, “Design, combinatorial synthesis and biological evaluations of novel 3-amino-1'-((1-aryl-1H-1,2,3-triazol-5-yl)methyl)-2'-oxospiro[benzo[a] pyrano[2,3-c]phenazine-1,3'-indoline]-2-carbonitrile antitumor hybrid molecules” (Eur J Med Chem, 2017)
